According to PubChem BioAssay AID334 (DTP/NCI, 2004):
“And” between values parts separate entries of the source, which are not always exact repeats. Equal values may be shown once. Inconclusive results and toxic doses are left out.

Tested on: CD2F1 mice, intracerebral P388 leukemia, median survival T/C%
Test: NCI In Vivo Anticancer Drug Screen. Data for tumor model P388 Leukemia (intracerebral) in CD2F1 (CDF1) mice
Details: endpoint: median survival time, higher = longer survival
Experimental: The antitumor activity of compounds was measured in mice bearing transplantable tumors. Survival or tumor size were measured and the results are expressed as the measurement made in the treated group (T) divided by the measurement made in the vehicle treated control group (C). The tumor model used in this assay is P388 Leukemia (intracerebral) in CD2F1 (CDF1) mice

[1] = dose: 12.5 mg/kg/injection, schedule: Q01DX009 (ip), vehicle: saline
[2] = dose: 25.0 mg/kg/injection, schedule: Q01DX009 (ip), vehicle: saline
[3] = dose: 50.0 mg/kg/injection, schedule: Q01DX009 (ip), vehicle: saline
[4] = dose: 8.0 mg/kg/injection, schedule: Q01DX009 (ip), vehicle: saline
[5] = dose: 16.0 mg/kg/injection, schedule: Q01DX009 (ip), vehicle: saline
[6] = dose: 32.0 mg/kg/injection, schedule: Q01DX009 (ip), vehicle: saline
[7] = dose: 64.0 mg/kg/injection, schedule: Q01DX009 (ip), vehicle: saline
[8] = dose: 8.0 mg/kg/injection, schedule: Q01DX009 (ip), vehicle: saline with Tween-80
[9] = dose: 16.0 mg/kg/injection, schedule: Q01DX009 (ip), vehicle: saline with Tween-80
[10] = dose: 32.0 mg/kg/injection, schedule: Q01DX009 (ip), vehicle: saline with Tween-80
[11] = dose: 64.0 mg/kg/injection, schedule: Q01DX009 (ip), vehicle: saline with Tween-80
[12] = dose: 128.0 mg/kg/injection, schedule: Q01DX009 (ip), vehicle: saline with Tween-80

## c1ccc([C@H]2CN3CCSC3=N2)cc1
dose: 5.0 mg/kg/injection, schedule: Q01DX009 (ip), vehicle: saline
  T/C: 113 % of control and 101 % of control and 102 % of control
dose: 10.0 mg/kg/injection, schedule: Q01DX005 (ip), vehicle: saline
  T/C: 105 % of control and 107 % of control
dose: 10.0 mg/kg/injection, schedule: Q01DX009 (ip), vehicle: saline
  T/C: 97 % of control and 100 % of control and 106 % of control
dose: 20.0 mg/kg/injection, schedule: Q01DX005 (ip), vehicle: saline
  T/C: 98 % of control and 102 % of control
dose: 20.0 mg/kg/injection, schedule: Q01DX009 (ip), vehicle: saline
  T/C: 113 % of control and 92 % of control and 103 % of control
dose: 40.0 mg/kg/injection, schedule: Q01DX005 (ip), vehicle: saline
  T/C: 97 % of control

## CCCCCCCC/C=C/CCCCCCCC(=O)Nc1ccn(C2OC(CO)C(O)C2O)c(=O)n1 (configuration not stated)
[1]
  T/C: 155 % of control
[2]
  T/C: 197 % of control
[3]
  T/C: 262 % of control

## Cc1cnc(/C=N\NC(N)=S)c2cccc(N)c12
dose: 12.5 mg/kg/injection, schedule: Q01DX009 (ip), vehicle: saline with Tween-80
  T/C: 99 % of control
dose: 25.0 mg/kg/injection, schedule: Q01DX009 (ip), vehicle: saline with Tween-80
  T/C: 102 % of control
dose: 50.0 mg/kg/injection, schedule: Q01DX009 (ip), vehicle: saline with Tween-80
  T/C: 104 % of control
dose: 100.0 mg/kg/injection, schedule: Q01DX009 (ip), vehicle: saline with Tween-80
  T/C: 98 % of control

## CC(=O)N[C@@H](Cc1ccc(N(CCCl)CCCl)cc1)C(=O)ON1C(=O)CCC1=O
dose: 1.45 mg/kg/injection, schedule: Q03HX008 (ip), vehicle: saline
  T/C: 105 % of control
dose: 2.9 mg/kg/injection, schedule: Q03HX008 (ip), vehicle: saline
  T/C: 105 % of control
dose: 5.8 mg/kg/injection, schedule: Q03HX008 (ip), vehicle: saline
  T/C: 115 % of control

## COS(C)(=O)=O
dose: 32.0 mg/kg/injection, schedule: Q01DX005 (ip), vehicle: saline
  T/C: 107 % of control and 108 % of control
dose: 64.0 mg/kg/injection, schedule: Q01DX005 (ip), vehicle: saline
  T/C: 97 % of control and 106 % of control
dose: 128.0 mg/kg/injection, schedule: Q01DX005 (ip), vehicle: saline
  T/C: 104 % of control and 105 % of control

## Nc1nc(F)nc2c1ncn2C1OC(COP(=O)(O)O)C(O)C1O (configuration not stated)
dose: 60.0 mg/kg/injection, schedule: Q01DX009 (ip), vehicle: saline
  T/C: 102 % of control
dose: 90.0 mg/kg/injection, schedule: Q01DX009 (ip), vehicle: saline
  T/C: 111 % of control
dose: 134.0 mg/kg/injection, schedule: Q01DX009 (ip), vehicle: saline
  T/C: 119 % of control
dose: 200.0 mg/kg/injection, schedule: Q01DX009 (ip), vehicle: saline
  T/C: 205 % of control

## CC1(C)N=C(N)N=C(N)N1c1ccc(OCCCNC(=O)Nc2cccc(S(=O)(=O)F)c2)c(Cl)c1
[2]
  T/C: 105 % of control
[3]
  T/C: 111 % of control
dose: 100.0 mg/kg/injection, schedule: Q01DX009 (ip), vehicle: saline
  T/C: 100 % of control

## CNc1nc(N(C)C)nc(N(C)C)n1
[4]
  T/C: 99 % of control
[1]
  T/C: 101 % of control and 111 % of control
[5]
  T/C: 103 % of control
[6]
  T/C: 106 % of control
[7]
  T/C: 118 % of control

## CCN(C)N=Nc1ccc(C(N)=O)cc1
dose: 25.0 mg/kg/injection, schedule: Q01DX009 (ip), vehicle: Klucel (hydroxypropylcellulose) (HPC)
  T/C: 101 % of control
dose: 100.0 mg/kg/injection, schedule: Q01DX009 (ip), vehicle: Klucel (hydroxypropylcellulose) (HPC)
  T/C: 154 % of control

## CC(=O)OCC1C(=O)OCC1C(=O)N1Cc2cc3ccccc3nc2C1 (configuration not stated)
dose: 4.0 mg/kg/injection, schedule: Q01DX009 (ip), vehicle: saline with Tween-80
  T/C: 101 % of control
[8]
  T/C: 103 % of control
[9]
  T/C: 96 % of control
[10]
  T/C: 107 % of control
[11]
  T/C: 102 % of control
[12]
  T/C: 96 % of control

## CC(=O)O[C@H]1C(=O)[C@@]2(C)[C@H]([C@H](OC(=O)c3ccccc3)[C@]3(O)C[C@H](OC(=O)[C@H](O)[C@@H](NC(=O)c4ccccc4)c4ccccc4)C(C)=C1C3(C)C)[C@]1(OC(C)=O)CO[C@@H]1C[C@@H]2O
dose: 2.5 mg/kg/injection, schedule: Q01DX009 (ip), vehicle: Klucel (hydroxypropylcellulose) (HPC)
  T/C: 100 % of control
dose: 5.0 mg/kg/injection, schedule: Q01DX009 (ip), vehicle: Klucel (hydroxypropylcellulose) (HPC)
  T/C: 103 % of control
dose: 10.0 mg/kg/injection, schedule: Q01DX009 (ip), vehicle: Klucel (hydroxypropylcellulose) (HPC)
  T/C: 96 % of control
dose: 20.0 mg/kg/injection, schedule: Q01DX009 (ip), vehicle: Klucel (hydroxypropylcellulose) (HPC)
  T/C: 86 % of control

## COc1cc(C[C@H]2c3cc(OC)c(OC)cc3CCN2C)c(Oc2cc3c(cc2OC)-c2c(OC)c(OC)cc4c2[C@H](C3)N(C)CC4)cc1OC
dose: 50.0 mg/kg/injection, schedule: Q01DX005 (ip), vehicle: Klucel (hydroxypropylcellulose) (HPC)
  T/C: 102 % of control and 106 % of control and 107 % of control
dose: 200.0 mg/kg/injection, schedule: Q01DX005 (ip), vehicle: Klucel (hydroxypropylcellulose) (HPC)
  T/C: 96 % of control and 101 % of control and 104 % of control

## N=C(N)SCc1c2ccccc2c(CSC(=N)N)c2ccccc12
dose: 2.5 mg/kg/injection, schedule: Q01DX005 (ip), vehicle: Klucel (hydroxypropylcellulose) (HPC)
  T/C: 93 % of control and 96 % of control
dose: 5.0 mg/kg/injection, schedule: Q01DX005 (ip), vehicle: Klucel (hydroxypropylcellulose) (HPC)
  T/C: 97 % of control and 104 % of control
dose: 10.0 mg/kg/injection, schedule: Q01DX005 (ip), vehicle: Klucel (hydroxypropylcellulose) (HPC)
  T/C: 97 % of control and 101 % of control
dose: 20.0 mg/kg/injection, schedule: Q01DX005 (ip), vehicle: Klucel (hydroxypropylcellulose) (HPC)
  T/C: 96 % of control and 104 % of control

## Nc1ncnc2c1ncn2C1OC(COP(=O)(O)O)C(O)C1O (configuration not stated)
[3]
  T/C: 97 % of control
dose: 1600.0 mg/kg/injection, schedule: Q01DX009 (ip), vehicle: saline
  T/C: 100 % of control and 104 % of control

## COc1ccc2c(c1)CCC(c1ccccc1)=C2c1ccc(OCCN2CCCC2)cc1
dose: 12.0 mg/kg/injection, schedule: Q01DX005 (ip), vehicle: Klucel (hydroxypropylcellulose) (HPC)
  T/C: 104 % of control and 110 % of control
dose: 24.0 mg/kg/injection, schedule: Q01DX005 (ip), vehicle: Klucel (hydroxypropylcellulose) (HPC)
  T/C: 97 % of control and 102 % of control
dose: 48.0 mg/kg/injection, schedule: Q01DX005 (ip), vehicle: Klucel (hydroxypropylcellulose) (HPC)
  T/C: 104 % of control and 108 % of control
dose: 96.0 mg/kg/injection, schedule: Q01DX005 (ip), vehicle: Klucel (hydroxypropylcellulose) (HPC)
  T/C: 96 % of control

## CCCCCCCCCCCCCCCCCC(=O)NC(CC(=O)OCCCCCC)c1ccc(N(CCCl)CCCl)cc1 (configuration not stated)
dose: 2.15 mg/kg/injection, schedule: Q03HX008 (ip), vehicle: saline
  T/C: 105 % of control
dose: 4.3 mg/kg/injection, schedule: Q03HX008 (ip), vehicle: saline
  T/C: 105 % of control
dose: 8.6 mg/kg/injection, schedule: Q03HX008 (ip), vehicle: saline
  T/C: 105 % of control
dose: 69.0 mg/kg/injection, schedule: Q03HX008 (ip), vehicle: saline
  T/C: 152 % of control
dose: 275.0 mg/kg/injection, schedule: Q03HX008 (ip), vehicle: saline
  T/C: 121 % of control

## COc1ccc2c(c1OC(C)=O)-c1cc(OC(C)=O)cc3c1C(C2)N(C(=O)CN(CCCl)CCCl)CC3 (configuration not stated)
dose: 1.5 mg/kg/injection, schedule: Q01DX009 (ip), vehicle: DMSO
  T/C: 104 % of control
dose: 3.0 mg/kg/injection, schedule: Q01DX009 (ip), vehicle: DMSO
  T/C: 101 % of control
dose: 6.0 mg/kg/injection, schedule: Q01DX009 (ip), vehicle: DMSO
  T/C: 100 % of control
dose: 12.0 mg/kg/injection, schedule: Q01DX009 (ip), vehicle: DMSO
  T/C: 88 % of control

## CC/C(=C(/CC)c1ccc(O)cc1)c1ccc(O)cc1
[8]
  T/C: 105 % of control
[4]
  T/C: 104 % of control
[9]
  T/C: 106 % of control
[5]
  T/C: 107 % of control
[10]
  T/C: 107 % of control
[6]
  T/C: 158 % of control
[11]
  T/C: 100 % of control
[7]
  T/C: 116 % of control
[12]
  T/C: 115 % of control
dose: 128.0 mg/kg/injection, schedule: Q01DX009 (ip), vehicle: saline
  T/C: 90 % of control
dose: 256.0 mg/kg/injection, schedule: Q01DX009 (ip), vehicle: saline with Tween-80
  T/C: 106 % of control
dose: 256.0 mg/kg/injection, schedule: Q01DX009 (ip), vehicle: saline
  T/C: 88 % of control
dose: 512.0 mg/kg/injection, schedule: Q01DX009 (ip), vehicle: saline with Tween-80
  T/C: 86 % of control
